We go through four molecules from ChEMBL document CHEMBL4418490, “N-(heteroaryl)-sulfonamide derivatives useful as s100-inhibitors” (2018).

In data set [1] the test system is MC-38. As to the kind of experiment: Antitumor activity against C215 transfected MC38 cells implanted in C57BL/6 mouse assessed as inhibition of tumor growth at 30 mg/kg, po dosed daily for 16 days starting following day of tumor inoculation. It counts as functional, organism-based.
Data set [2] in a line: Plasma concentration in C215 transfected MC38 cells implanted C57BL/6 mouse at 5 mg/kg, po dosed as cassette formulation and measured at 1 hr after post dose by LC-MS analysis. It counts as ADME, organism-based.
The nature of data set [3]: Plasma concentration in C215 transfected MC38 cells implanted C57BL/6 mouse at 1 mg/kg, iv dosed as cassette formulation and measured at 2 hrs after post dose by LC-MS analysis. It counts as ADME, organism-based.
The nature of data set [4]: Plasma concentration in C215 transfected MC38 cells implanted C57BL/6 mouse at 1 mg/kg, iv dosed as cassette formulation and measured at 0.5 hrs after post dose by LC-MS analysis. It is filed as ADME, organism-based.
Data set [5] is described as follows: Plasma concentration in C215 transfected MC38 cells implanted C57BL/6 mouse at 1 mg/kg, iv dosed as cassette formulation and measured at 0.083 hrs after post dose by LC-MS analysis. It is filed as ADME, organism-based.
Data set [6] can be described thus: Plasma concentration in C215 transfected MC38 cells implanted C57BL/6 mouse at 1 mg/kg, iv dosed as cassette formulation and measured at 7 hrs after post dose by LC-MS analysis. It counts as ADME, organism-based.
Data set [7] is described as follows: Plasma concentration in C215 transfected MC38 cells implanted C57BL/6 mouse at 1 mg/kg, iv dosed as cassette formulation and measured at 4 hrs after post dose by LC-MS analysis. It counts as ADME, organism-based.
Data set [8] can be described thus: Plasma concentration in C215 transfected MC38 cells implanted C57BL/6 mouse assessed as N-(5-bromo-3-hydroxypyrazin-2-yl)-1-(3,4-dichlorophenyl)methanesulfonamide level at 5 mg/kg, po dosed as cassette formulation and measured at 1 hr after post dose by LC-MS analysis. It is filed as ADME, organism-based. The conditions noted are these: in vivo.
Data set [9] in a line: Plasma concentration in C215 transfected MC38 cells implanted C57BL/6 mouse assessed as N-(5-bromo-3-hydroxypyrazin-2-yl)-1-(3,4-dichlorophenyl)methanesulfonamide level at 1 mg/kg, iv dosed as cassette formulation and measured at 2 hrs after post dose by LC-MS analysis. It counts as ADME, organism-based. The conditions noted are these: in vivo.
A short description of data set [10]: Plasma concentration in C215 transfected MC38 cells implanted C57BL/6 mouse assessed as N-(5-bromo-3-hydroxypyrazin-2-yl)-1-(3,4-dichlorophenyl)methanesulfonamide level at 5 mg/kg, po dosed as cassette formulation and measured at 7 hrs after post dose by LC-MS analysis. As to conditions: in vivo. It is filed as ADME, organism-based.
Data set [11] in a line: Plasma concentration in C215 transfected MC38 cells implanted C57BL/6 mouse at 5 mg/kg, po dosed as cassette formulation and measured at 2 hrs after post dose by LC-MS analysis. It is filed as ADME, organism-based.
The nature of data set [12]: Plasma concentration in C215 transfected MC38 cells implanted C57BL/6 mouse assessed as N-(5-bromo-3-hydroxypyrazin-2-yl)-1-(3,4-dichlorophenyl)methanesulfonamide level at 5 mg/kg, po dosed as cassette formulation and measured at 2 hrs after post dose by LC-MS analysis. As to conditions: in vivo. It counts as ADME, organism-based.
Data set [13] is described as follows: Plasma concentration in C215 transfected MC38 cells implanted C57BL/6 mouse at 5 mg/kg, po dosed as cassette formulation and measured at 7 hrs after post dose by LC-MS analysis. It counts as ADME, organism-based.
Data set [14] in a line: Plasma concentration in C215 transfected MC38 cells implanted C57BL/6 mouse assessed as N-(5-bromo-3-hydroxypyrazin-2-yl)-1-(3,4-dichlorophenyl)methanesulfonamide level at 1 mg/kg, iv dosed as cassette formulation and measured at 0.083 hrs after post dose by LC-MS analysis. It is filed as ADME, organism-based. As to conditions: in vivo.
A short description of data set [15]: Plasma concentration in C215 transfected MC38 cells implanted C57BL/6 mouse assessed as N-(5-bromo-3-hydroxypyrazin-2-yl)-1-(3,4-dichlorophenyl)methanesulfonamide level at 1 mg/kg, iv dosed as cassette formulation and measured at 7 hrs after post dose by LC-MS analysis. The conditions noted are these: in vivo. It is filed as ADME, organism-based.
Data set [16] in a line: Plasma concentration in C215 transfected MC38 cells implanted C57BL/6 mouse assessed as N-(5-bromo-3-hydroxypyrazin-2-yl)-1-(3,4-dichlorophenyl)methanesulfonamide level at 5 mg/kg, po dosed as cassette formulation and measured at 4 hrs after post dose by LC-MS analysis. As to conditions: in vivo. It is filed as ADME, organism-based.
The nature of data set [17]: Plasma concentration in C215 transfected MC38 cells implanted C57BL/6 mouse assessed as N-(5-bromo-3-hydroxypyrazin-2-yl)-1-(3,4-dichlorophenyl)methanesulfonamide level at 1 mg/kg, iv dosed as cassette formulation and measured at 0.5 hrs after post dose by LC-MS analysis. It counts as ADME, organism-based. The conditions noted are these: in vivo.
Data set [18] is described as follows: Plasma concentration in C215 transfected MC38 cells implanted C57BL/6 mouse at 1 mg/kg, iv dosed as cassette formulation and measured at 1 hr after post dose by LC-MS analysis. It counts as ADME, organism-based.
Data set [19] is described as follows: Plasma concentration in C215 transfected MC38 cells implanted C57BL/6 mouse assessed as N-(5-bromo-3-hydroxypyrazin-2-yl)-1-(3,4-dichlorophenyl)methanesulfonamide level at 1 mg/kg, iv dosed as cassette formulation and measured at 1 hr after post dose by LC-MS analysis. It counts as ADME, organism-based. The conditions noted are these: in vivo.
A short description of data set [20]: Plasma concentration in C215 transfected MC38 cells implanted C57BL/6 mouse assessed as N-(5-bromo-3-hydroxypyrazin-2-yl)-1-(3,4-dichlorophenyl)methanesulfonamide level at 5 mg/kg, po dosed as cassette formulation and measured at 0.5 hrs after post dose by LC-MS analysis. It is filed as ADME, organism-based. As to conditions: in vivo.
A short description of data set [21]: Plasma concentration in C215 transfected MC38 cells implanted C57BL/6 mouse at 5 mg/kg, po dosed as cassette formulation and measured at 0.5 hrs after post dose by LC-MS analysis. It counts as ADME, organism-based.
The nature of data set [22]: Plasma concentration in C215 transfected MC38 cells implanted C57BL/6 mouse assessed as N-(5-bromo-3-hydroxypyrazin-2-yl)-1-(3,4-dichlorophenyl)methanesulfonamide level at 1 mg/kg, iv dosed as cassette formulation and measured at 4 hrs after post dose by LC-MS analysis. It is filed as ADME, organism-based. As to conditions: in vivo.
Data set [23] is described as follows: Plasma concentration in C215 transfected MC38 cells implanted C57BL/6 mouse at 5 mg/kg, po dosed as cassette formulation and measured at 4 hrs after post dose by LC-MS analysis. It is filed as ADME, organism-based.
Data set [24] deals with MC-38. As to the kind of experiment: Antitumor activity against C215 transfected MC38 cells implanted in C57BL/6 mouse assessed as inhibition of tumor growth at 30 mg/kg, po dosed daily for 15 days starting following day of tumor inoculation. It counts as functional, organism-based.
The nature of data set [25]: Plasma concentration in C215 transfected MC38 cells implanted C57BL/6 mouse assessed as N-(5-chloro-3-hydroxypyridin-2-yl)-1-(3,5-dichlorophenyl)methanesulfonamide level at 5 mg/kg, po dosed as cassette formulation and measured at 2 hrs after post dose by LC-MS analysis. It is filed as ADME, organism-based. As to conditions: in vivo.
Data set [26] is described as follows: Plasma concentration in C215 transfected MC38 cells implanted C57BL/6 mouse assessed as N-(5-chloro-3-hydroxypyridin-2-yl)-1-(3,5-dichlorophenyl)methanesulfonamide level at 5 mg/kg, po dosed as cassette formulation and measured at 7 hrs after post dose by LC-MS analysis. It counts as ADME, organism-based. The conditions noted are these: in vivo.
Data set [27] is described as follows: Plasma concentration in C215 transfected MC38 cells implanted C57BL/6 mouse assessed as N-(5-chloro-3-hydroxypyridin-2-yl)-1-(3,5-dichlorophenyl)methanesulfonamide level at 5 mg/kg, po dosed as cassette formulation and measured at 0.5 hrs after post dose by LC-MS analysis. It counts as ADME, organism-based. The conditions noted are these: in vivo.
Data set [28] can be described thus: Plasma concentration in C215 transfected MC38 cells implanted C57BL/6 mouse assessed as N-(5-chloro-3-hydroxypyridin-2-yl)-1-(3,5-dichlorophenyl)methanesulfonamide level at 1 mg/kg, iv dosed as cassette formulation and measured at 0.083 hrs after post dose by LC-MS analysis. It counts as ADME, organism-based. The conditions noted are these: in vivo.
Data set [29] can be described thus: Plasma concentration in C215 transfected MC38 cells implanted C57BL/6 mouse assessed as N-(5-chloro-3-hydroxypyridin-2-yl)-1-(3,5-dichlorophenyl)methanesulfonamide level at 1 mg/kg, iv dosed as cassette formulation and measured at 4 hrs after post dose by LC-MS analysis. It is filed as ADME, organism-based. As to conditions: in vivo.
The nature of data set [30]: Plasma concentration in C215 transfected MC38 cells implanted C57BL/6 mouse assessed as N-(5-chloro-3-hydroxypyridin-2-yl)-1-(3,5-dichlorophenyl)methanesulfonamide level at 1 mg/kg, iv dosed as cassette formulation and measured at 0.5 hrs after post dose by LC-MS analysis. It is filed as ADME, organism-based. The conditions noted are these: in vivo.
A short description of data set [31]: Plasma concentration in C215 transfected MC38 cells implanted C57BL/6 mouse assessed as N-(5-chloro-3-hydroxypyridin-2-yl)-1-(3,5-dichlorophenyl)methanesulfonamide level at 5 mg/kg, po dosed as cassette formulation and measured at 4 hrs after post dose by LC-MS analysis. It counts as ADME, organism-based. The conditions noted are these: in vivo.
The nature of data set [32]: Plasma concentration in C215 transfected MC38 cells implanted C57BL/6 mouse assessed as N-(5-chloro-3-hydroxypyridin-2-yl)-1-(3,5-dichlorophenyl)methanesulfonamide level at 1 mg/kg, iv dosed as cassette formulation and measured at 2 hrs after post dose by LC-MS analysis. It is filed as ADME, organism-based. As to conditions: in vivo.
A short description of data set [33]: Plasma concentration in C215 transfected MC38 cells implanted C57BL/6 mouse assessed as N-(5-chloro-3-hydroxypyridin-2-yl)-1-(3,5-dichlorophenyl)methanesulfonamide level at 5 mg/kg, po dosed as cassette formulation and measured at 1 hr after post dose by LC-MS analysis. It counts as ADME, organism-based. As to conditions: in vivo.
Data set [34] can be described thus: Plasma concentration in C215 transfected MC38 cells implanted C57BL/6 mouse assessed as N-(5-chloro-3-hydroxypyridin-2-yl)-1-(3,5-dichlorophenyl)methanesulfonamide level at 1 mg/kg, iv dosed as cassette formulation and measured at 1 hr after post dose by LC-MS analysis. It is filed as ADME, organism-based. As to conditions: in vivo.
The nature of data set [35]: Plasma concentration in C215 transfected MC38 cells implanted C57BL/6 mouse assessed as N-(5-chloro-3-hydroxypyridin-2-yl)-1-(3,5-dichlorophenyl)methanesulfonamide level at 1 mg/kg, iv dosed as cassette formulation and measured at 7 hrs after post dose by LC-MS analysis. It is filed as ADME, organism-based. The conditions noted are these: in vivo.

Active and inactive are the calls of the source. The calls are words filed in the database; no cut-off is given here.

Take `COc1ncc(S(=O)(=O)Nc2cncc(Cl)c2O)cc1Br`: in the data set with MC-38 [1], the TGI result is “Active”.

On to `COc1nc(Br)cnc1NS(=O)(=O)Cc1ccc(Cl)c(Cl)c1`, for which the concentration at 1 h in data set [2] was determined as 69400 nM; in data set [18], 17500 nM. Also, the concentration at 2 h in data set [3] amounted to 14900 nM; in data set [11] it was 78900 nM. In addition, the concentration at 0.5 h is 16800 nM in data set [4] and 51700 nM in data set [21]. In [5], this molecule registered a concentration at 0.083 h of 25200 nM. Besides, the concentration at 7 h in data set [6] was 6200 nM; in data set [13], 73500 nM. For the same molecule, the values for the concentration at 4 h in [7] and in data set [23] were 9200 nM and 59400 nM, respectively. Besides, the concentration turned out to be 860 nM in data set [8]; 320 nM in data set [9]; 1100 nM in data set [10]; 800 nM in [12]; 120 nM in data set [14]; 200 nM in data set [15]. For the same molecule, the concentration in data set [16] turned out to be 630 nM; in [17] it was 320 nM; in data set [19], 320 nM; in [20], 570 nM; in [22], 210 nM.

Consider `O=S(=O)(Nc1cnccc1O)c1cc(Cl)sc1Cl`, for which, in the data set on MC-38 [24], the TGI entry is “Active”.

As to `COc1cc(Cl)cnc1NS(=O)(=O)Cc1cc(Cl)cc(Cl)c1`, the concentration at 1 h was 1600 nM in [2] and 84 nM in data set [18]. Also, the concentration was determined as 21 nM in data set [25]; 19 nM in data set [26]; 45 nM in [27]; 44 nM in [28]; 4 nM in data set [29]; 5 nM in [30]. The concentration turned out to be 12 nM in data set [31]; 6 nM in data set [32]; 26 nM in [33]; 3 nM in [34]; 4 nM in data set [35]. Moreover, the concentration at 2 h came to 380 nM in [3] and 1300 nM in [11]. The concentration at 0.5 h was 550 nM in data set [4] and 3600 nM in data set [21]. In data set [5], this molecule returned a concentration at 0.083 h of 6300 nM. Besides, the concentration at 7 h amounted to 150 nM in data set [6] and 700 nM in data set [13]. Moreover, the concentration at 4 h stood at 170 nM in data set [7] and 850 nM in data set [23].
